Source: US20120295838A1, “Selective poly-substituted glycine antibiotics and related compositions” (priority 2008, published 2012)
Where two headings read alike, the source gives them in different places. Square brackets hold non-standard residues; d marks the D form. Peptide text beside a SMILES is read from it. Nspe = C[C@H](NCC(=O)O)c1ccccc1; Nlys = NCCCCNCC(=O)O

Experiments:
E. coli ATCC 35218 = assay type: cell-based
Method: (§1) Whereas the preceding generation of molecules was designed to elucidate structure function relationships of specific molecular parameters (chirality, length, hydrophobicity, etc.), another generation compounds were designed explicitly to explore effects on selectivity. Antimicrobial activity of these compounds was tested against bacterial strains E. coli (ATTC 35218) and B. subtilis (ATTC 6633) in cation-adjusted MHB using the microdilution protocols previously described. The sequences, antimicrobial activities, hemolytic activities, and metabolic inhibitory concentrations against NIH 3T3 mouse fibroblast cells are summarized in Table 3 and the rationale of their design is described below.
(§2) Screening antibacterial assays. MICs were determined in 96-well microtiter plates in accordance with CLSI M7-A6 protocols. Peptoid solutions with 50 μL total volume were prepared using 2:1 serial dilutions. 50 i—tL of bacteria inoculum (1×10^6 CFU/mL) prepared in cation-adjusted Mueller-Hinton broth (CAMHB) was added to test wells. Control wells contained 100 μL MHB (no growth) or 50 μL inoculums with 50 μL MHB with no peptoid. […] Reported values were reproducible over three experiments, each containing two parallel trials.
(§3) Antibacterial Assays for Compositions. MICs were determined according to CLSI M7-A6 protocols in a 96-well microtiter plate. In test wells, 50 μL bacterial inoculum (1×10^6 CFU/ml) in cation-adjusted Mueller-Hinton broth (CAMHB) was added to 50 μL peptoid solution in CAMHB (prepared by 1:2 serial dilutions). Positive controls contained 50 μL inoculum and 50 μL CAMHB without peptoid. […] MIC values reported were reproducible between three independent experimental replicates, each consisting of two parallel trials.

B. subtilis ATCC 6633 = assay type: cell-based
Method: as §1, §2, §3

MTS assay, NIH 3T3 cells = assay type: cell-based, mouse; settings: mouse, NIH 3T3 fibroblast cells
Method: The potencies of all compounds were determined against representative Gram-negative (E. coli ATCC 35218) and Gram-positive (B. subtilis ATCC 6633) biosafety level 1 (BSL1) organisms. In addition to hemolytic activity, the conventional measure of toxicity to mammalian cells, the effect of each ampetoid on NIH 3T3 mouse fibroblast cells was determined using the MTS tetrazolium salt-based colorimetric assay. While hemolysis measures the degree to which erythrocytes are lysed, the MTS assay indirectly quantifies the extent to which cellular metabolic activity is inhibited.
MTS assays. NIH/3T3 cells (ATCC Corporation) cultured at 37° C. and 5% CO2 in complete Dulbecco's modified eagle's media (CDMEM) supplemented with 1% sodium pyruvate, 1% penicillin-streptomycin, 1.5 g/L NaHCO3, and 10% fetal bovine serum. Cells were seeded at a density of 5,000 cells per well for NIH/3T3 cells in 96-well plates (100 μl total volume). A peptoid solution plate (100 μL total volume per well) was prepared by serial dilution of aqueous peptoid stock solution in Hank's balanced salt solution (HBSS) media. The day-old cell monolayers were washed with HBSS and media was replaced with 100 μL HBSS. The contents of the peptoid solution plate were transferred onto corresponding wells of the cell monolayer plate, and 40 μL MTS reagent (Promega, Inc.) was added to each well. After incubating for 3 hours at 37° C., absorbance at 490 nm was determined. […] The average of six replicates is reported.

human erythrocytes = assay: Hemolysis assay; assay type: cell-based
Method: (§4) Hemolysis assays. Erythrocytes were isolated from freshly drawn, heparanized human blood and resuspended to 20 vol % in PBS (pH 7.4). In a 96-well microtiter plate, 100 μL erythrocyte suspension was added to 100 uL peptoid solution in PBS (prepared by 1:2 serial dilutions), or 100 μL PBS in the case of negative controls. 100% hemolysis wells contained 100 μL, blood cell suspension with 100 μL 0.2 vol % Triton X-100. The plate was incubated for 1 h at 37° C., then each well was diluted with 1504 PBS. The plate was then centrifuged at 1200 g for 15 min, 100 μL of the supernatant from each well transferred to a fresh microtiter plate, and A350 measured.
Hemolysis assays. Erythrocytes were isolated from freshly drawn, heparanized human blood and resuspended in PBS (pH 7.4) to make a 20% volume suspension. Peptoid solutions were prepared by serial dilution (2:1) in a 96-well microtiter plate. For test wells, 100 μLL of erythrocyte suspension was added to 100 μL of peptoid solution in PBS; PBS without peptoid was used as the negative control and 0.2 vol % Triton X-100 as the positive control that indicates 100% hemolysis. After 1 hour incubation at 37° C., each well was diluted with 150 μL PBS. Plates were then centrifuged at 1,200×g for 15 minutes to pellet the cells. 30 μL of the supernatant from each well were transferred to the corresponding well of a second 96-well plate that contains 70 μL PBS.
as §4, with “assays for Compositions.” for “assays.”, “100” for “100 uL”, “μL” for “μL,”, “150 μL” for “1504”, “1200g” for “1200 g”

C[C@@H](c1ccccc1)N(CC(N)=O)C(=O)CN(CCCCN)C(=O)CN(CCCCN)C(=O)CN(C(=O)CN(C(=O)CN(CCCCN)C(=O)CN(C(=O)CN(CCCCN)C(=O)CN(CCCCN)C(=O)CN(C(=O)CN(C(=O)CNCCCCN)[C@@H](C)c1ccccc1)[C@@H](C)c1ccccc1)[C@@H](C)c1ccccc1)[C@@H](C)c1ccccc1)[C@@H](C)c1ccccc1 [1-Nlys5,11, H-(Nlys-Nspe-Nspe-Nlys-Nlys-Nspe)2-NH2] (H-[Nlys][Nspe][Nspe][Nlys][Nlys][Nspe][Nlys][Nspe][Nspe][Nlys][Nlys][Nspe]-NH2)
E. coli MIC (E. coli ATCC 35218; ATCC 35218): 50 µM
MIC for E. coli ATCC 35218 (E. coli ATCC 35218; ATCC 35218): 30 µM
MIC for B. subtilis ATCC 6633 (B. subtilis ATCC 6633): 0.78 µM
CC50 at 3 h (MTS assay, NIH 3T3 cells): 85 µM
HD10 (human erythrocytes): >200/>200 μM
HD50 (human erythrocytes): >200/>200 μM

CC(C)[C@H](C)N(CC(N)=O)C(=O)CN(C(=O)CN(CCCCN)C(=O)CN(C(=O)CN(C(=O)CN(CCCCN)C(=O)CN(C(=O)CN(C(=O)CN(CCCCN)C(=O)CN(C(=O)CN(C(=O)CNCCCCN)[C@@H](C)C(C)C)[C@@H](C)C(C)C)[C@@H](C)C(C)C)[C@@H](C)C(C)C)[C@@H](C)C(C)C)[C@@H](C)C(C)C)[C@@H](C)C(C)C [1-Nsdpall, H-(Nlys-Nsdp-Nsdp)4-NH2]
E. coli MIC (E. coli ATCC 35218; Table 6, E. coli ATCC 35218): 25 µM
Selectivity ratio SR E. coli (E. coli ATCC 35218; Table 6, ratio of 10% hemolytic dose to E. coli MIC): > 8
B. subtilis MIC (B. subtilis ATCC 6633; Table 6, B. subtilis ATCC 6633): 0.78 µM
Selectivity ratio SR B. subtilis (B. subtilis ATCC 6633; Table 6, ratio of 10% hemolytic dose to B. subtilis MIC): 256
CC50 at 3 h (MTS assay, NIH 3T3 cells): 64 µM

C[C@@H](c1ccc2ccccc2c1)N(CC(N)=O)C(=O)CN(C(=O)CN(CCCCN)C(=O)CN(C(=O)CN(C(=O)CN(CCCCN)C(=O)CN(C(=O)CN(C(=O)CN(CCCCN)C(=O)CN(C(=O)CN(C(=O)CNCCCCN)[C@@H](C)c1ccccc1)[C@@H](C)c1ccccc1)[C@@H](C)c1ccccc1)[C@@H](C)c1ccc2ccccc2c1)[C@@H](C)c1ccccc1)[C@@H](C)c1ccccc1)[C@@H](C)c1ccccc1 [1-Nsna6,12, H-(Nlys-Nspe-Nspe-Nlys-Nspe-Nsna)2-NH2]
MIC for E. coli ATCC 35218 (E. coli ATCC 35218; ATCC 35218): 25 to 50 µM
MIC for B. subtilis ATCC 6633 (B. subtilis ATCC 6633): 0.78 to 1.6 µM
HD10 (human erythrocytes): 7 µM
HD50 (human erythrocytes): 27 µM
HD10 (10% hemolytic dose) (human erythrocytes; red cells of human, 1 h): 4 µM
HD50 (50% hemolytic dose) (human erythrocytes; red cells of human, 1 h): 22 µM

C[C@H](NCC(=O)N(CC(=O)N(CCCCN)CC(=O)N(CC(=O)N(CCCCN)CC(=O)N(CC(=O)N(CCCCN)CC(=O)N(CC(=O)N(CC(=O)N(CC(=O)N(CC(=O)N(CCCCN)CC(N)=O)[C@@H](C)c1ccccc1)[C@@H](C)c1ccccc1)[C@@H](C)c1ccccc1)[C@@H](C)c1ccccc1)[C@@H](C)c1ccccc1)[C@@H](C)c1ccccc1)[C@@H](C)c1ccccc1)c1ccccc1 [1scr, H-(Nspe)2-(Nlys-Nspe)3-(Nspe)3-Nlys-NH2] (H-[Nspe][Nspe][Nlys][Nspe][Nlys][Nspe][Nlys][Nspe][Nspe][Nspe][Nspe][Nlys]-NH2)
E. coli MIC (E. coli ATCC 35218; ATCC 35218): 6.3 µM
CC50 at 3 h (MTS assay, NIH 3T3 cells): 8.5 µM
HD10 (human erythrocytes): 64 µM

C[C@@H](c1ccccc1)N(CC(=O)N(CCCCN)CC(=O)N(CC(=O)N(CC(=O)N(CCCCN)CC(=O)N(CC(=O)N(CC(=O)N(CCCCN)CC(N)=O)[C@@H](C)c1ccccc1)[C@@H](C)c1ccccc1)[C@@H](C)c1ccccc1)[C@@H](C)c1ccccc1)C(=O)CN(C(=O)CNCCCCN)[C@@H](C)c1ccccc1 [110 mer, H-(Nlys-Nspe-Nspe)3-Nlys-NH2] (H-[Nlys][Nspe][Nspe][Nlys][Nspe][Nspe][Nlys][Nspe][Nspe][Nlys]-NH2)
E. coli MIC (E. coli ATCC 35218; ATCC 35218): 12.5 µM
CC50 at 3 h (MTS assay, NIH 3T3 cells): 54 µM
HD10 (human erythrocytes): > 200 µM
